# Assay results from patent publication US5279811A, “Ester-substituted diaminedithiols and radiolabeled complexes thereof” (The Du Pont Merck Pharmaceutical Company, priority 1988, dated 1994).
# Experiment: solubility
# Format: physicochemical
# Details: all solvents except aqueous base
smiles,measurement,value
"O=C(O)C(CS)NCCNC(CS)C(=O)O [N,N'-1,2-ethylenediylbis-L-cysteine]",solubility,insoluble in all solvents except aqueous base
